The test system of one series is RPMI 8402. Put plainly: MTT-microtiter plate tetrazolinium cytotoxicity assay (Test B). The series is classed as cell-based, human. How it is done:
(§1) Test B. Inhibition of Cell Growth: MTT-Microtiter Plate Tetrazolinium Cytotoxicity Assay (RPMI 8402, CPT-K5, U937, U937/CR Cells)
(§2) The cytotoxicity is determined using the MTT-microtiter plate tetrazolinium cytotoxicity assay (MTA), see Chen A. Y. et al. Cancer Res. 1993, 53, 1332; Mosmann, T. J., J. Immunol. Methods 1983, 65, 55; and Carmichael, J. et al. Cancer Res. 1987, 47, 936. The human lymphoblast RPMI 8402 and its camptothecin-resistant variant cell line, CPT-K5 were provided by Dr. Toshiwo Andoh (Anchi Cancer Research Institute, Nagoya, Japan), see Andoh, T.; Okada, K, Adv. in Pharmacology 1994, 29B, 93. Human U-937 myeloid leukemia cells and U-937/CR cells were described by Rubin et al., J. Biol. Chem., 1994, 269, 2433-2439. The cytotoxicity assay is performed by using 96-well microtiter plates using 2000 cells/well, in […] of growth medium. Cells are grown in suspension at 37° C. in 5% CO2 and maintained by regular passage in RPMI medium supplemented with 10% heat-inactivated fetal bovine serum, L-glutamine (2 mM), penicillin (100 U/mL), and streptomycin (0.1 mg/mL). For determination of IC50, cells are exposed continuously for 3-4 days to varying concentrations of drug, and MTT assays were performed at the end of the fourth day. […] All assays are performed at least twice in 6 replicate wells. All assays are performed under the direction of Dr. L. F. Liu, Department of Pharmacology, The University of Medicine and Dentistry of New Jersey, Robert Wood Johnson Medical School, Piscataway, N.J.

The test system of the next series is CPT-K5. Nature of the series: MTT-microtiter plate tetrazolinium cytotoxicity assay (Test B), camptothecin-resistant variant. It counts as cell-based. The following applies: Homo sapiens. The procedure: as §1, §2
Where [1] appears, read: human lymphoblast RPMI 8402 cells, continuous exposure 3-4 days, MTT, read-out: RPMI 8402 [μM] IC50 values.
Where [2] appears, read: camptothecin-resistant variant cell line CPT-K5, continuous exposure 3-4 days, MTT, read-out: CPT-K5 IC50 values.

These results are taken from patent US8389721B2, “Solubilized topoisomerase poisons” (Rutgers, The State University of New Jersey, priority 2001, dated 2013).

Like-named read-outs stand apart in the source and are kept apart here.

With `CC[C@@]1(O)C(=O)OCc2c1cc1n(c2=O)Cc2cc3ccccc3nc2-1` [Camptothecin], the half-maximal inhibitory concentration (IC50) in the series on RPMI 8402 (Homo sapiens, RPMI 8402, read-out: RPMI 8402 [μM] IC50 values) is 0.002 µM; in the series with CPT-K5 (CPT-K5, read-out: CPT-K5 IC50 values), 4500 nM. As to `COc1cc2c(=O)n(CCN(C)C)c3c4cc5c(cc4nnc3c2cc1OC)OCO5` [Compound 5, 11,12-dihydro-2,3-dimethoxy-8,9-methylenedioxy-11-[2-(dimethylamino)ethyl]-5,6,11-triazachrysen-12-one], the IC50 is 0.003 µM in the series on RPMI 8402 (setting [1]) and 1200 nM with CPT-K5 (setting [2]). Consider `COc1cc2c(=O)n(CC3CCCO3)c3c4cc5c(cc4nnc3c2cc1OC)OCO5` (stereo not drawn) [Example 4, 2,3-Dimethoxy-8,9-methylenedioxy-11-(2-tetrahydrofuranyl)methyl-11H-5,6,11-triazachrysen-12-one], for which the melting point was 300 to 303 °C (dec.). Take `COc1cc2c(=O)n(CCN3CCCC3)c3c4cc5c(cc4nnc3c2cc1OC)OCO5` [Example 5, 2,3-Dimethoxy-8,9-methylenedioxy-11-[2-(pyrrolidin-1-yl)ethyl]-11H-5,6,11-triaza-chrysen-12-one]: the melting point was 229 °C. In the case of `COc1cc2c(=O)n(CCN3CCCCC3)c3c4cc5c(cc4nnc3c2cc1OC)OCO5` [Example 6, 2,3-Dimethoxy-8,9-methylenedioxy-11-[2-(piperidin-1-yl)ethyl]-11H-5,6,11-triaza-chrysen-12-one], the melting point fell in the range of 294 to 295 °C. For `COc1cc2c(=O)n(C(C)CN(C)C)c3c4cc5c(cc4ncc3c2cc1OC)OCO5` (stereo not drawn) [Example 8, 8,9-Dimethoxy-2,3-methylenedioxy-5-[2-(N,N-dimethylamino)-1-methylethyl]-5H-dibenzo[c,h]1,6-naphthyridin-6-one], the melting point fell in the range of 186 to 187 °C. On the same count and under the same terms, for `COc1cc2c(=O)n(CCN3CCCC3)c3c4cc5c(cc4ncc3c2cc1OC)OCO5` [Example 9, 8,9-Dimethoxy-2,3-methylenedioxy-5-[2-(pyrrolidin-1-yl)ethyl]-5H-dibenzo[c,h]1,6-naphthyridin-6-one] the value was 255 to 257 °C (dec.); for `COc1cc2c(=O)n(CCN3CCN(C)CC3)c3c4cc5c(cc4ncc3c2cc1OC)OCO5` [Example 10, 8,9-Dimethoxy-2,3-methylenedioxy-5-[2-(4-methylpiperazin-1-yl)ethyl]-5H-dibenzo[c,h]1,6-naphthyridin-6-one], 244 to 246 °C; for `COc1cc2c(=O)n(CCCN(C)C)c3c4cc5c(cc4ncc3c2cc1OC)OCO5` [Example 11, 8,9-Dimethoxy-2,3-methylenedioxy-5-[3-(N,N-dimethylamino)propyl]-5H-dibenzo[c,h]1,6-naphthyridin-6-one], 262 to 264 °C (dec.). On the same count and under the same terms, for `COc1cc2c(=O)n(CC3CCCO3)c3c4cc5c(cc4ncc3c2cc1OC)OCO5` (stereo not drawn) [Example 12, 8,9-Dimethoxy-2,3-methylenedioxy-5-(2-tetrahydrofuranyl)methyl-5H-dibenzo[c,h]1,6-naphthyridin-6-one] the value was 270 to 273 °C. For `COc1cc2c(=O)n(CCO)c3c4cc5c(cc4ncc3c2cc1OC)OCO5` [Example 13, 8,9-Dimethoxy-2,3-methylenedioxy-5-[2-(hydroxy)ethyl]-5H-dibenzo[c,h]1,6-naphthyridin-6-one], the melting point is 285 to 286 °C. For `COc1cc2c(=O)n(CCOCCO)c3c4cc5c(cc4ncc3c2cc1OC)OCO5` [Example 14, 8,9-Dimethoxy-2,3-methylenedioxy-5-[2-(2-hydroxyethoxy)ethyl]-5H-dibenzo[c,h]1,6-naphthyridin-6-one], the melting point came to 235 °C. As to `COc1cc2c(cc1OC)-c1cnc3cc4c(cc3c1N(CCN(C)C)C2)OCO4` [Example 17, 8,9-Dimethoxy-2,3-methylenedioxy-5-[2-(N,N-dimethylamino)ethyl]-5,6-dihydro-dibenzo[c,h]1,6-naphthyridine], the melting point is 271 to 273 °C (dec.). `COc1cc2c(cc1OC)-c1cnc3cc4c(cc3c1N(C(C)CN(C)C)C2)OCO4` (stereo not drawn) [Example 18, 8,9-Dimethoxy-2,3-methylenedioxy-5-[2-(N,N-dimethylamino)-1-methylethyl]-5,6-dihydro-dibenzo[c,h]1,6-naphthyridine] yielded a melting point of 153 to 154 °C. On the same count and under the same terms, under `CCN(CC)CCn1c(=O)c2cc(OC)c(OC)cc2c2cnc3cc4c(cc3c21)OCO4` [Example 19, 8,9-Dimethoxy-2,3-methylenedioxy-5-[2-(N,N-diethylamino)ethyl]-5H-dibenzo[c,h]1,6-naphthyridin-6-one] stands 221 to 223 °C (dec.). For the compound `CCc1c2c(nc3ccc(OC(=O)N4CCC(N5CCCCC5)CC4)cc13)-c1cc3c(c(=O)n1C2)COC(=O)[C@]3(O)CC` [Irinotecan], the half-inhibitory concentration (IC50) was 0.57 µM in the series with RPMI 8402 (setting [1]) and over 100000 nM in the series on CPT-K5 (setting [2]). On to `CC[C@@]1(O)C(=O)OCc2c1cc1n(c2=O)Cc2cc3c(CN(C)C)c(O)ccc3nc2-1` [Topotecan], for which the IC50 in the series with RPMI 8402 (setting [1]) is 0.005 µM; in the series on CPT-K5 (setting [2]), over 10000 nM.
